Measurements: the supplement of paper PMC10307832

What was measured:
Assay in all cases: relative viability (nuclei count vs DMSO), 5 days (fraction); higher = more cells survive
Ispinesib + Pictilisib = compound: Cc1ccc(C(=O)N(CCCN)[C@@H](c2nc3cc(Cl)ccc3c(=O)n2Cc2ccccc2)C(C)C)cc1 [Ispinesib] + CS(=O)(=O)N1CCN(Cc2cc3nc(-c4cccc5[nH]ncc45)nc(N4CCOCC4)c3s2)CC1 [Pictilisib] (partner 1 µM)
Procedure, shortened: (§1)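 Cells from lung cancer lines were seeded into 1536-well plates and, one day later, dosed by pin tool. Treatments were either a single drug or a fixed dose of an anchor drug with five library-drug doses (not always all listed) in √10 steps. After 5 days, nuclei were stained in a one-step fixation (final 0.05% Triton X-100, 1% formaldehyde, 1 ug/ml Hoechst) and counted on 4× images, and relative viability is the treated-to-vehicle nuclei ratio, as the median of duplicate plates.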

Ispinesib + Tozasertib = compound: Cc1ccc(C(=O)N(CCCN)[C@@H](c2nc3cc(Cl)ccc3c(=O)n2Cc2ccccc2)C(C)C)cc1 [Ispinesib] + Cc1cc(Nc2cc(N3CCN(C)CC3)nc(Sc3ccc(NC(=O)C4CC4)cc3)n2)n[nH]1 [Tozasertib] (partner 0.1 µM)
Procedure, shortened: as §1

Ispinesib + Phenformin = compound: Cc1ccc(C(=O)N(CCCN)[C@@H](c2nc3cc(Cl)ccc3c(=O)n2Cc2ccccc2)C(C)C)cc1 [Ispinesib] + N=C(N)NC(=N)NCCc1ccccc1 [Phenformin] (partner 250 µM)
Procedure, shortened: as §1

Ispinesib + Lapatinib = compound: Cc1ccc(C(=O)N(CCCN)[C@@H](c2nc3cc(Cl)ccc3c(=O)n2Cc2ccccc2)C(C)C)cc1 [Ispinesib] + CS(=O)(=O)CCNCc1ccc(-c2ccc3ncnc(Nc4ccc(OCc5cccc(F)c5)c(Cl)c4)c3c2)o1 [Lapatinib] (partner 2 µM)
Procedure, shortened: as §1

UMC-11 was tested. Which relative viability (Ispinesib + Pictilisib; first compound 0.001 µM) did it give?
The relative viability was 0.653.

What about the relative viability (Ispinesib + Pictilisib; first compound 0.003162 µM) of the same cell line?
Its relative viability is 0.94.

What about the relative viability (Ispinesib + Pictilisib; first compound 0.01 µM) of the same cell line?
The relative viability was 0.701.

What about the relative viability (Ispinesib + Pictilisib; first compound 0.03162 µM) of the same cell line?
The relative viability was 0.2.

What about the relative viability (Ispinesib + Pictilisib; first compound 0.1 µM) of the same cell line?
The relative viability was 0.263.

What about the relative viability (Ispinesib + Tozasertib; first compound 0.001 µM) of the same cell line?
The relative viability was 0.201.

What about the relative viability (Ispinesib + Tozasertib; first compound 0.003162 µM) of the same cell line?
The relative viability was 0.201.

And the relative viability (Ispinesib + Tozasertib; first compound 0.01 µM)?
The relative viability was 0.212.

What about the relative viability (Ispinesib + Tozasertib; first compound 0.03162 µM) of the same cell line?
Its relative viability is 0.189.

And the relative viability (Ispinesib + Tozasertib; first compound 0.1 µM)?
Its relative viability is 0.205.

And the relative viability (Ispinesib + Phenformin; first compound 0.001 µM)?
Its relative viability is 0.346.

What about the relative viability (Ispinesib + Phenformin; first compound 0.003162 µM) of the same cell line?
The relative viability was 0.327.

What about the relative viability (Ispinesib + Phenformin; first compound 0.01 µM) of the same cell line?
The relative viability was 0.286.

And the relative viability (Ispinesib + Phenformin; first compound 0.03162 µM)?
Its relative viability is 0.179.

What about the relative viability (Ispinesib + Phenformin; first compound 0.1 µM) of the same cell line?
The relative viability was 0.193.

And the relative viability (Ispinesib + Lapatinib; first compound 0.001 µM)?
The relative viability was 1.08.

And the relative viability (Ispinesib + Lapatinib; first compound 0.003162 µM)?
Its relative viability is 0.751.

And the relative viability (Ispinesib + Lapatinib; first compound 0.01 µM)?
Its relative viability is 0.723.

What about the relative viability (Ispinesib + Lapatinib; first compound 0.03162 µM) of the same cell line?
Its relative viability is 0.294.

And the relative viability (Ispinesib + Lapatinib; first compound 0.1 µM)?
Its relative viability is 0.216.
